From paper PMC6279743, “A small molecule ApoE4-targeted therapeutic candidate that normalizes sirtuin 1 levels and improves cognition in an Alzheimer’s disease mouse model” (Scientific Reports, 2018)

Assays:
[1] = system: SirT1 levels in A172-E4 cells; experiment: Confirmation assay in A172-E4 cells, SirT1 AlphaLISA; format: cell-based, human; details: 50 μM A03 vs DMSO
Method: Jesus Campagna, Patricia Spilman, Barbara Jagodzinska, Dongsheng Bai, Asa Hatami, Chunni Zhu, Tina Bilousova, Michael Jun, Chris Jean Elias, Johnny Pham, Gregory Cole, Mary Jo LaDu, Michael E. Jung, Dale E. Bredesen, and […]
Confirmation assay in A172-E4 cells. Befo re transfection, A172 human glioblastoma cells were cultured in Dulbecco’s Modified Eagle Medium (DMEM) supplemented with 10% fetal bovine serum and 1% penicillin/streptomycin in a 37 °C incubator in an atmosphere of 5% CO2 in air. The day of transfection, the media was replaced with Opti-MEM reduced serum medium. Transient transfection with human ApoE4 and ApoE3 constructs in pcDNA3 mammalian expression vectors or empty vector (control) was performed in 96-well plates using a 1:1 mixture of two transfection reagents - Lipofectamine 2000 and siPORT amine - in Opti-MEM as previously described13. After 4 hr incubation with transfection reagents, medium was exchanged for fresh […]
Cells were incubated with the compound for 60 hrs, then cell culture medium (for sAPPα) and cells (lysates for SirT1) were harvested and levels of sAPPα and SirT1

[2] = Pharmacokinetics after oral delivery in mice; format: in vivo; details: oral 10 mg/kg
Method: All in vivo experiments described were carried out in strict accordance with good animal practice according to NIH recommendations. All procedures for animal use were approved by the Animal Research Committee (ARC) at UCLA and under an approved ARC protocol. Pharmacokinetic (PK) analysis[68]–[70] consisted of oral delivery of compounds (10 mg/Kg) to individual mice followed by euthanasia at 1, 2, 4, 6, and 8 hours post-dose by ketamine/xylazine over-anesthesia, blood collection by cardiac puncture, and transcardial saline perfusion. Whole blood was centrifuged at 5000 rpm for 10 min. in a 5 °C centrifuge to isolate plasma and the plasma stored at −20 °C before analysis. Whole brains were collected, dissected down the midline, snap frozen on dry ice, and stored at −80 °C before analysis. The levels of the compounds in both plasma and brain tissue were determined by a quantitative LC/MS/MS methodology at Integrated Analytical Solutions (IAS, Berkeley, CA). Plasma samples were precipitated with an acetonitrile: methanol (1:1) cocktail containing an internal standard. Brain samples were homogenized directly in ethyl acetate by the liquid-liquid method. The resulting supernatant was evaporated to dryness and subjected to LC/MS/MS analysis. The Tmax, Cmax, brain-to-plasma ratios and brain levels were then calculated using PK Solutions software (SummitPK).

CC(N)C(=O)OC(C)(C)Cc1ccc(Cl)cc1 (stereo not shown) [A03, alaproclate]
SirT1 levels in ApoE4-transfected A172 cells [1]: significantly increased SirT1 levels
Tmax ([2]; mouse, brain, n = 1 per time point): 1 h
AUC ([2]; mouse, plasma, 1-8 hours): 266 ng·h/mL
AUC brain ([2]; 1-8 hours): 1336 ng·h/g
